For this experiment, the system named is Aβ42 release. As to the kind of experiment: Aβ42 release from HEK cells stably expressing APPswe, Meso Scale Discovery electrochemiluminescence assay. The experiment is classed as cell-based. To be noted: Homo sapiens, HEK293; HEK cell line stably expressing APPswe; 4-6 h incubation with test compound; Aβ42 secreted to cell medium; read-out: pIC50 values of Aβ42 release (converted). The method, then:
The level of activity of the compounds on Aβ formation was tested using the following method:
Compounds were diluted in 100% DMSO and stored at […] prior to use. Human Embryonic Kidney (HEK) cell line stably expressing APP with the Swedish mutation (APPswe) were cultured using Dulbecco's Modified Eagles medium (DMEM) supplied with […] glucose, Na-pyruvate and GlutaMAX with 10% FBS, 100 U/ml penicillin-streptomycin (PEST) respectively, 1×non-essential amino acids (NEAA), […], 100 μg/ml Zeocine. Cells at about 80% confluence were washed with PBS, detached from culture flasks using 1×Trypsin/EDTA diluted in PBS, re-suspended in cell media and plated in 384-well poly-d-lysine coated cell culture plates at about 10000-15000 cells/well, in 25 μL cell media. Optionally, cryo-preserved cells (frozen and stored at −140° C. in 90% cell media and 10% DMSO) were thawed, washed and plated as above. Next the cells were incubated for 15-24 h at 37° C. and 5% CO2, after which cell medium was changed. Fresh medium containing test compound diluted ×200 from prepared compound plate was added to the cells before further incubation for 4-6 hours at 37° C. and 5% CO2. After incubation with test compound the amount of Aβ peptides, including Aβ42, Aβ40, Aβ39, Aβ38 and Aβ37, secreted to cell medium was analyzed using the electrochemiluminescence assay technology from Meso Scale Discovery Technology, in combination with specific antibodies raised against the different Aβ peptides. Potential cytotoxic effects of the compounds were usually assayed by measuring the ATP content (ViaLight) from cell lysate.

Structures are written as SMILES.

The values below come from patent publication US20100292210A1, “Novel Compounds for A-Beta-Related Pathologies” (AstraZeneca AB, priority 2009, published 2010).

Regarding `COc1cc(Nc2ccc3c(n2)O[C@H](c2ccccc2)CN(CCO)C3)ccc1C#N` [Example 29, (R)-4-(4-(2-Hydroxyethyl)-2-phenyl-2,3,4,5-tetrahydropyrido[3,2-f][1,4]oxazepin-8-ylamino)-2-methoxybenzonitrile], the IC50 was 1260 nM.

For `Cc1cncn1-c1ccc(Nc2ccc3c(n2)O[C@H](c2ccccc2)CN(CCO)C3)cc1` [Example 30, (R)-2-(8-(4-(5-methyl-1H-imidazol-1-yl)phenylamino)-2-phenyl-2,3-dihydropyrido[3,2-f][1,4]oxazepin-4(5H)-yl)ethanol], the IC50 was 631 nM.

Take `COc1cc(Nc2ccc3c(n2)OC(COC(C)C)CN(C(C)=O)C3)ccc1-n1cnc(C)c1` (stereo not drawn) [Example 31, 1-(2-(Isopropoxymethyl)-8-(3-methoxy-4-(4-methyl-1H-imidazol-1-yl)phenylamino)-2,3-dihydropyrido[3,2-f][1,4]oxazepin-4(5H)-yl)ethanone]: the IC50 is 631 nM.

For the compound `OCCN1Cc2ccc(Nc3ccc(-n4cncn4)c(Cl)c3)nc2O[C@H](c2ccccc2)C1` [Example 32, (R)-2-(8-(3-Chloro-4-(1H-1,2,4-triazol-1-yl)phenylamino)-2-phenyl-2,3-dihydropyrido[3,2-f][1,4]oxazepin-4(5H)-yl)ethanol], the IC50 is 501 nM.

In the case of `COc1cc(Nc2ccc3c(n2)OC(c2cc(C)nn2C)CN(CC#N)C3)ccc1-n1cnc(C)c1` (stereo not drawn) [Example 33, 2-(2-(1,3-Dimethyl-1H-pyrazol-5-yl)-8-(3-methoxy-4-(4-methyl-1H-imidazol-1-yl)phenylamino)-2,3-dihydropyrido[3,2-f][1,4]oxazepin-4(5H)-yl)acetonitrile], the IC50 was 316 nM.

With `COc1cc(Nc2ccc3c(n2)O[C@H](c2ccccc2)CN(CCO)C3)ccc1-n1cncc1C` [Example 34, (R)-2-(8-(3-Methoxy-4-(5-methyl-1H-imidazol-1-yl)phenylamino)-2-phenyl-2,3-dihydropyrido[3,2-f][1,4]oxazepin-4(5H)-yl)ethanol], the IC50 is 251 nM.

For `COc1cc(Nc2ccc3c(n2)OC(COC(C)C)CN(C)C3)ccc1-n1cnc(C)c1` (stereo not drawn) [Example 35, 2-(Isopropoxymethyl)-N-(3-methoxy-4-(4-methyl-1H-imidazol-1-yl)phenyl)-4-methyl-2,3,4,5-tetrahydropyrido[3,2-f][1,4]oxazepin-8-amine], the IC50 is 200 nM.

`COc1cc(Nc2ccc3c(n2)OC(c2ccccn2)CN(CC#N)C3)ccc1-n1cnc(C)c1` (stereo not drawn) [Example 36, 2-(8-(3-Methoxy-4-(4-methyl-1H-imidazol-1-yl)phenylamino)-2-(pyridin-2-yl)-2,3-dihydropyrido[3,2-f][1,4]oxazepin-4(5H)-yl)acetonitrile]: the IC50 is 158 nM.

`COc1cc(Nc2ccc3c(n2)OC(c2ccccn2)CN(C)C3)ccc1-n1cnc(C)c1` (stereo not drawn) [Example 37, N-(3-Methoxy-4-(4-methyl-1H-imidazol-1-yl)phenyl)-4-methyl-2-(pyridin-2-yl)-2,3,4,5-tetrahydropyrido[3,2-f][1,4]oxazepin-8-amine]: the IC50 is 126 nM.

With `COc1cc(Nc2cnc3c(n2)O[C@H](c2ccccc2)CN(CC#N)C3)ccc1-n1cnc(C)c1` [Example 38, (R)-2-(3-(3-methoxy-4-(4-methyl-1H-imidazol-1-yl)phenylamino)-6-phenyl-6,7-dihydropyrazino[2,3-f][1,4]oxazepin-8(9H)-yl)acetonitrile], the IC50 was 100 nM.

For the compound `COc1cc(Nc2cnc3c(n2)O[C@H](c2ccccc2)CN(C)C3)ccc1-n1cnc(C)c1` [Example 39, (R)—N-(3-Methoxy-4-(4-methyl-1H-imidazol-1-yl)phenyl)-8-methyl-6-phenyl-6,7,8,9-tetrahydropyrazino[2,3-f][1,4]oxazepin-3-amine], the IC50 is 79.4 nM.

As for `COc1cc(Nc2ccc3c(n2)O[C@H](c2ccccc2)CN(C(=O)N(C)C)C3)ccc1-n1cnc(C)c1` [Example 40, (R)-8-(3-Methoxy-4-(4-methyl-1H-imidazol-1-yl)phenylamino)-N,N-dimethyl-2-phenyl-2,3-dihydropyrido[3,2-f][1,4]oxazepine-4(5H)-carboxamide], the IC50 is 50.1 nM.

For `COc1cc(Nc2ccc3c(n2)O[C@H](c2ccccc2)CN(CCO)C3)ccc1-n1cnc(C)n1` [Example 41, (R)-2-(8-(3-Methoxy-4-(3-methyl-1H-1,2,4-triazol-1-yl)phenylamino)-2-phenyl-2,3-dihydropyrido[3,2-f][1,4]oxazepin-4(5H)-yl)ethanol], the IC50 was 39.8 nM.

As to `Cc1cn(-c2ccc(Nc3ccc4c(n3)O[C@H](c3ccccc3)CN(CCO)C4)cc2)cn1` [Example 42, (R)-2-(8-(4-(4-Methyl-1H-imidazol-1-yl)phenylamino)-2-phenyl-2,3-dihydropyrido[3,2-f][1,4]oxazepin-4(5H)-yl)ethanol], the IC50 was 31.6 nM.

For the compound `COc1cc(Nc2ccc3c(n2)O[C@H](c2ccccc2)CN(CCO)C3)cnc1-n1cnc(C)c1` [Example 43, (R)-2-(8-(5-methoxy-6-(4-methyl-1H-imidazol-1-yl)pyridin-3-ylamino)-2-phenyl-2,3-dihydropyrido[3,2-f][1,4]oxazepin-4(5H)-yl)ethanol], the IC50 is 31.6 nM.

Regarding `COc1cc(Nc2ccc3c(n2)O[C@H](c2ccccc2)CN(C)C3)ccc1-n1cnc(C)n1` [Example 44, (R)—N-(3-Methoxy-4-(3-methyl-1H-1,2,4-triazol-1-yl)phenyl)-4-methyl-2-phenyl-2,3,4,5-tetrahydropyrido[3,2-f][1,4]oxazepin-8-amine], the IC50 is 31.6 nM.

Take `COc1cc(Nc2ccc3c(n2)O[C@H](c2ccccc2)CN(C2CC2)C3)ccc1-n1cnc(C)n1` [Example 45, (R)-4-Cyclopropyl-N-(3-methoxy-4-(3-methyl-1H-1,2,4-triazol-1-yl)phenyl)-2-phenyl-2,3,4,5-tetrahydropyrido[3,2-f][1,4]oxazepin-8-amine]: the IC50 was 25.1 nM.

As to `COc1cc(Nc2ccc3c(n2)OC(c2ccccc2)CN(CCO)C3)ccc1-n1cnc(C)c1` (stereo not drawn) [Example 46, 2-(8-(3-Methoxy-4-(4-methyl-1H-imidazol-1-yl)phenylamino)-2-phenyl-2,3-dihydropyrido[3,2-f][1,4]oxazepin-4(5H)-yl)ethanol], the IC50 is 25.1 nM.

As to `COc1cc(Nc2ccc3c(n2)O[C@H](c2ccccc2)CN(CC#N)C3)ccc1-n1cnc(C)c1` [Example 47, (R)-2-(8-(3-Methoxy-4-(4-methyl-1H-imidazol-1-yl)phenylamino)-2-phenyl-2,3-dihydropyrido[3,2-f][1,4]oxazepin-4(5H)-yl)acetonitrile], the IC50 was 15.8 nM.

In the case of `Cc1ncn(-c2ccc(Nc3ccc4c(n3)O[C@H](c3ccccc3)CN(C)C4)cc2)n1` [Example 48, (R)-4-Methyl-N-(4-(3-methyl-1H-1,2,4-triazol-1-yl)phenyl)-2-phenyl-2,3,4,5-tetrahydropyrido[3,2-f][1,4]oxazepin-8-amine], the IC50 was 100 nM.

`COc1cc(Nc2ccc3c(n2)OC(C2CC2)CN(C)C3)ccc1-n1cnc(C)c1` (stereo not drawn) [Example 49, 2-Cyclopropyl-N-(3-methoxy-4-(4-methyl-1H-imidazol-1-yl)phenyl)-4-methyl-2,3,4,5-tetrahydropyrido[3,2-f][1,4]oxazepin-8-amine]: the IC50 was 100 nM.
